According to ChEMBL document CHEMBL1152536, “Molecular modeling of human acidic mammalian chitinase in complex with the natural-product cyclopentapeptide chitinase inhibitor argifin” (Bioorg Med Chem, 2009):
pIC50: −log10 of the molar value.

Target: Acidic mammalian chitinase (Homo sapiens, UniProt Q9BZP6)
Test: Inhibition of human acidic mammalian chitinase

Acidic mammalian chitinase, sequence (Q9BZP6 whole entry): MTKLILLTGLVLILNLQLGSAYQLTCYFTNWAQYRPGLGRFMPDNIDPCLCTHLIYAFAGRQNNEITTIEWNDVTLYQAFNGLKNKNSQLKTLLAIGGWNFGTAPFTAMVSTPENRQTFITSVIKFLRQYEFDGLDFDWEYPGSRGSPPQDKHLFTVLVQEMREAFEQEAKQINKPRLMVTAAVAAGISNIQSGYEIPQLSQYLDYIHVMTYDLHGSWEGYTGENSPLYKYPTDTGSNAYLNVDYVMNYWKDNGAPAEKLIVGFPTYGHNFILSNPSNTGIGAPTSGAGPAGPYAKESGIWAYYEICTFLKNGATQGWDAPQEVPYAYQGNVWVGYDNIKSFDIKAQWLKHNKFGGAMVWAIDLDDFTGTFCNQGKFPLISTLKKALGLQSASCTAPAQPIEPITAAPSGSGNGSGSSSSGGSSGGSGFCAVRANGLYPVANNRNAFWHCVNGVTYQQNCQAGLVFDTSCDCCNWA

Question: How did the pIC50 turn out when `CNC(=O)NC(=N)NCCC[C@@H]1NC(=O)[C@@H](C)NC(=O)C[C@@H](C(=O)O)NC(=O)C[C@@H](C(=O)O)NC(=O)[C@H](Cc2ccccc2)N(C)C1=O` [ARGIFIN] was run?
Answer: 5.35
